Results from publication PMC12458545, “Repurposing a Detrimental Antibody Epitope as Targeted Therapeutics for Sepsis and Rheumatoid Arthritis” (Research Square, 2025).
Entries after “also recorded” stand apart in the source; their conditions may differ.

Experiments:
[1] = test system: CLP-induced sepsis; experiment: CLP sepsis survival; type: in vivo, Balb/C mice
Experimental: Experimental sepsis was induced in Balb/C mice via cecal ligation and puncture (CLP) as previously described,[30],[37]. […] Briefly, mice were anesthetized intramuscularly with ketamine (75 mg/kg, Henry Schein Animal Health, Dublin, Ohio) and xylazine (10 mg/kg, Sigma-Aldrich) before a midline abdominal incision was made in the lower left abdomen. The cecum was ligated with a 4–0 silk suture at 50% of its length from the distal end, and punctured twice with a 21-gauge needle to induce moderate to severe sepsis. The cecum was returned to the abdominal cavity, and the incision was closed in layers. Approximately 30 min post-CLP, animals received imipenem/cilastatin (0.5 mg/mouse, Primaxin, Merck & Co., Inc.) and 1.0 mL of sterile saline for fluid resuscitation. Animals were randomized to control vehicle and experimental groups, administered P2 or P2–1 intraperitoneally at indicated doses and time points, and monitored for survival rates. To elucidate P2–1’s protective mechanisms, a separate group of Balb/C mice underwent CLP and received P2–1 (1.0 mg/kg) at 2 h and 20 h post-CLP. At 24 h post-CLP, animals were euthanized to collect blood and measure serum cytokines and chemokines using murine Cytokine Antibody Arrays.
All data were first assessed for normality using the Shapiro-Wilk test before applying the appropriate statistical analyses. All data are presented as mean ± standard error of the mean (SEM) unless otherwise specified. For comparison among multiple groups with non-normal (skewed) distribution, the Kruskal-Wallis ANOVA test followed by Dunn’s post-hoc test was used to evaluate statistical differences. Survival curves were analyzed using Kaplan-Meier method and compared using the nonparametric log-rank (Mantel-Cox) test. Statistical significance was defined as a P value less than 0.05.

[2] = target: T1, Recombinant human HMGB1 (Homo sapiens, UniProt P09429); experiment: SPR (OpenSPR) binding to immobilized HMGB1; conditions: immobilized HMGB1, HBS-P buffer; Fig. 5A; Mean ± SEM, n = 2 independent experiments
T1 construct: made in house; host or cells: E. coli BL21 (DE3) pLysS
T1 sequence (P09429 1-215): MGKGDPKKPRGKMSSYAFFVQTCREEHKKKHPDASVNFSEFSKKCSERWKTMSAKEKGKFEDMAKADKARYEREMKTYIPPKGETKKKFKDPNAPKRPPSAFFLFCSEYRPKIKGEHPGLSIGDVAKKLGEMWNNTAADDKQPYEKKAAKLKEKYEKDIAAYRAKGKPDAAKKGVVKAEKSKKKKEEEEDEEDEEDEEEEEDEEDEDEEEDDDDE
Experimental: Binding kinetics between HMGB1 and P2–1 were measured using Nicoya Life Science gold nanoparticle-based OpenSPR technology (Kitchener, ON, Canada) as previously described,[84]. Recombinant human HMGB1 was immobilized onto a Carboxyl sensor chip, and P2–1 peptide was flowed over immobilized HMGB1 at various concentrations in HBS-P buffer (GE Healthcare). Response units were recorded over time, and binding affinity was estimated as the equilibrium dissociation constant KD using Trace Drawer Kinetic Data Analysis v.1.6.1 (Nicoya Life Science).

[3] = test system: human PBMCs; experiment: HMGB1-induced pCTS-L secretion, Western blot; type: cell-based; conditions: P2–1 5 or 10 μg/ml, HMGB1 0.5 or 2.0 μg/ml, 16 h, n = 4 independent experiments
Experimental: Human blood was purchased from the New York Blood Center (Long Island City, NY, USA), and PBMCs were isolated by density gradient centrifugation through Ficoll (Ficoll-Paque PLUS) as previously described,[30]. PBMCs were cultured in RPMI-1640 supplemented with 10% human serum, 2 mM L-glutamine, 100 U/mL penicillin, and 100 μg/mL streptomycin (all from Invitrogen). For experiments, PBMCs were stimulated with recombinant human HMGB1 (0.5 or 2.0 μg/ml) for 16 hours, either alone or in combination with P2–1 at 5.0 or 10.0 μg/ml. Cell-free supernatants were collected for analysis of cytokines/chemokines levels by Cytokine Antibody Arrays, or pCTS-L levels by Western blotting analysis as described.
Cell-conditioned medium from human PBMC cultures was collected, and concentrated using Amicon Ultra Centrifugal Filters. Equal volumes of conditioned medium, representing equivalent numbers of cells, were resolved on sodium dodecyl sulfate (SDS)-polyacrylamide gels and transferred to polyvinylidene difluoride (PVDF) membranes. After blocking with 5% nonfat milk in Tris-buffered saline with 0.1% Tween 20 (TBST), membranes were probed with a home-made primary monoclonal antibody against pCTS-L (e.g., mAb2, 1:1000) overnight as previously described. After washing, membranes were incubated with a horseradish peroxidase-conjugated secondary antibody. Protein bands were visualized using enhanced chemiluminescence (ECL) substrate (Pierce) and detected with a chemiluminescence imaging system (e.g., Bio-Rad ChemiDoc MP). The relative levels of specific proteins were determined using the UN-SCAN-IT Gel Analysis Software Version 7.1 (Silk Scientific Inc., Orem, UT, USA) and expressed in arbitrary units (AU).

[4] = water solubility; type: physicochemical

In the case of “54-TKVH(Nle)KSFLAFQTKT-69 [P2–1, water-soluble derivative of TN peptide P2 with Met to Norleucine and Cys to Ser substitutions]”, the “animal survival (# of Survivors)” value ([1]; Fig. 2C, P2–1 0.1 mg/kg, delayed administration (24 h and 48 h post-CLP), no asterisk) is reported as 60%, the “survival” value ([1]; P2–1 0.1 mg/kg at 2 h, 20 h, 28 h, 44 h, and 52 h post-CLP, 0.1 mg/kg) is reported as “conferred significant protection against lethal sepsis” and the “animal survival (# of Survivors)” value ([1]; P2–1 0.1 mg/kg i.p. at 2 h, 20 h, 28 h, 44 h, and 52 h post-CLP, P < 0.05 vs. control) is reported as 70%. For the same substance, the “survival” value ([1]; P2–1 1.0 mg/kg, delayed, 24 h and 48 h post-CLP, 1 mg/kg) was “provided potent protection against lethal sepsis; also recorded: rescued mice from lethal sepsis”, the “animal survival (# of Survivors)” value ([1]; delayed, P2–1 1.0 mg/kg i.p. at 24 h and 48 h post-CLP, P < 0.05 vs. vehicle) was 90% and the Kd [2] was 24.1 ± 9.35 nM. The “HMGB1-induced pCTS-L secretion” value [3] was “dose-dependently abrogated HMGB1-induced pCTS-L secretion; also recorded: striking and dose-dependent suppression”, the “HMGB1-induced pCTS-L secretion” value ([3]; listed as P2-1) was “inhibitory effect” and the water solubility [4] was “good water solubility”.
